Values belong to the compound of their own block, whether it stands above or below them.
Legend:
Test in all cases: calcium fluorescence (Fluo-4AM) assay, inducible stable HEK293 cells
Format in all cases: cell-based
ItypOR25 = molecular target: T1, ItypOR25 (Ips typographus, UniProt A0A8F3ERC7)
T1 construct: full-length, N-terminal V5 tag, codon-optimized gene; with ItypOrco
T1 sequence (A0A8F3ERC7 1-394): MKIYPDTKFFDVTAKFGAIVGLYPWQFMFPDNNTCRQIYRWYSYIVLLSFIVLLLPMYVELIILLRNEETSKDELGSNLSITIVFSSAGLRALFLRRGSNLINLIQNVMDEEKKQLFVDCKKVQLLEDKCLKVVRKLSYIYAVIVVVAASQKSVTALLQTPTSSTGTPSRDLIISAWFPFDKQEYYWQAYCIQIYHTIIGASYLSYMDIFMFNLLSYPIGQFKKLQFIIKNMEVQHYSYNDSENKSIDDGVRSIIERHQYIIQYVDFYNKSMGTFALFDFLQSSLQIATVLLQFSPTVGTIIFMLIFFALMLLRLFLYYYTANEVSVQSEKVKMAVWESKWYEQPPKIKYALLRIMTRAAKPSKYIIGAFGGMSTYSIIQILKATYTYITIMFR
T1 sequence (A0A7L8XYY7 1-480 partner): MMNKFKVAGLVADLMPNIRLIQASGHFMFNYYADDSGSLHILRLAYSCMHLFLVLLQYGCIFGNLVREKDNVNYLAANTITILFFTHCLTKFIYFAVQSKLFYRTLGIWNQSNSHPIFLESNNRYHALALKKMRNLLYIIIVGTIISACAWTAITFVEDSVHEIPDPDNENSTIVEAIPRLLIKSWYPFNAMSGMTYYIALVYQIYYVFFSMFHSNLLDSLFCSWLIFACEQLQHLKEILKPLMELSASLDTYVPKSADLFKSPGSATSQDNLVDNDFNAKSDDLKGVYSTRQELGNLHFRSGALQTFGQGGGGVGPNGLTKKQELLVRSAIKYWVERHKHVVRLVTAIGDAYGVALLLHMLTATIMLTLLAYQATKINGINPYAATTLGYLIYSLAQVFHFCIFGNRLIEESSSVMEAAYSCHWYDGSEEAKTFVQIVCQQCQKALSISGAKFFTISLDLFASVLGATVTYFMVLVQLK

ItypOR49 = molecular target: T2, ItypOR49 (Ips typographus, UniProt A0A7L8XYT4)
T2 construct: full-length, N-terminal V5 tag, codon-optimized gene; with ItypOrco

ItypOrco = molecular target: T3, ItypOrco (Ips typographus, UniProt A0A7L8XYY7)
T3 construct: full-length, N-terminal Myc tag, codon-optimized gene, expressed without an OR

T2 sequence (A0A7L8XYT4 entry or part of it, one chain of several): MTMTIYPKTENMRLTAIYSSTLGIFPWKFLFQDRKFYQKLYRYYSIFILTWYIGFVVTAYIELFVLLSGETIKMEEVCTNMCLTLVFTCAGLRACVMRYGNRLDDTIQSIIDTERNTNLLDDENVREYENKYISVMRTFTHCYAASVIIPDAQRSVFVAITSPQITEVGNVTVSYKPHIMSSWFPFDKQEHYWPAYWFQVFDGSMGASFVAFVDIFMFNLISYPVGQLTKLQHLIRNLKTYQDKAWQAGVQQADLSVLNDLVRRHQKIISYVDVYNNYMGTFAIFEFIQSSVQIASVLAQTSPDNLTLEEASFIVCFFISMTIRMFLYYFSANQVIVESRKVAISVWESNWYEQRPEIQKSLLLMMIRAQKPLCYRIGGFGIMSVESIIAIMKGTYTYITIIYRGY

- EC50 (ItypOR25): ~24.5 µM
SMILES: CC1=CC[C@@H]2[C@H](C1)C2(C)C [(+)-3-carene]

- EC50 (ItypOR49): 7.1 µM
SMILES: C=CC(=C)C[C@@H](O)C=C(C)C [(R)-(−)-ipsdienol]

- EC50 (ItypOrco): 21.1 µM
SMILES: CCc1ccc(NC(=O)CSc2nnc(-c3cccnc3)n2CC)cc1 [VUAA1]

— article PMC8450354, “Codon Optimization of Insect Odorant Receptor Genes May Increase Their Stable Expression for Functional Characterization in HEK293 Cells” (Frontiers in Cellular Neuroscience, 2021)
